Reference: patent US20230146455A1, “TREATMENT OF INFLAMMATORY DISEASES WITH PEPTIDES AND PHARMACEUTICAL COMPOSITIONS” (Yuyu Pharma, Inc., priority 2020, published 2023)
Where “and” joins values, the source holds several entries; their conditions need not be identical. Identical values can stand only once. Where a SMILES comes first, the peptide text is derived from it. [ ]: non-standard residue; d: D form. Hyp = O=C(O)[C@@H]1C[C@@H](O)CN1

How the values were obtained:
[1] = tested on: TNF-alpha; test: Example 9 Luminex, LPS hPBMCs: TNF-alpha; assay type: cell-based, human; conditions: PBMC + test article 100 uM, no LPS
Description: (§1) Treatment Human PBMCs were pretreated with YY-101, YDE-011 and YDE-043 or reference compound; Xiidra® at various concentration (ranging from 1 nM to 100 uM) for 2 h before stimulation. An equal volume of 0.5% DMSO was used as a vehicle control. Then, the cells were treated with LPS at 5 ug/ml. The supernatants from treated cells were harvested at 24 h and placed in a 96 well for Luminex cytokine & chemokine profiling using a Luminex 200 multiplex assay (Luminex; R&D system, USA).
(§2) The main study arm with triplicate wells per group in a 24-well plate: • 1. Blank • 2. PBMC: 0.5% DMSO • 3. PBMC+LPS (5 ug/ml) • 4. PBMC+YY-101 100 uM • 5. PBMC+YY-101 10 uM • 6. PBMC+YY-101 1 uM • 7. PBMC+YY-101 0.1 uM • 8. PBMC+YY-101 0.01 uM • 9. PBMC+LPS (5 ug/ml)+Xiidra®100 uM • 10. PBMC+LPS (5 ug/ml)+Xiidra® 10 uM • 11. PBMC+LPS (5 ug/ml)+Xiidra® 1 uM • 12. PBMC+LPS (5 ug/ml)+Xiidra®0.1 uM • 13. PBMC+LPS (5 ug/ml)+Xiidra®0.01 uM • 14. PBMC+LPS (5 ug/ml)+Xiidra®0.001 uM • 15. PBMC+LPS (5 ug/ml)+YY-101 100 uM • 16. PBMC+LPS (5 ug/ml)+YY-101 10 uM • 17. PBMC+LPS (5 ug/ml)+YY-101 1 uM • 18. PBMC+LPS (5 ug/ml)+YY-101 0.1 uM • 19. PBMC+LPS (5 ug/ml)+YY-101 0.01 uM • 20. PBMC+LPS (5 ug/ml)+YY-101 0.001 uM • 21. PBMC+LPS (5 ug/ml)+YDE-011 100 uM • 22. PBMC+LPS (5 ug/ml)+YDE-011 10 uM • 23. PBMC+LPS (5 ug/ml)+YDE-011 1 uM • 24. PBMC+LPS (5 ug/ml)+YDE-011 0.1 uM • 25. PBMC+LPS (5 ug/ml)+YDE-011 0.01 uM • 26. PBMC+LPS (5 ug/ml)+YDE-011 0.001 uM • 27. PBMC+LPS (5 ug/ml)+YDE-043 100 uM • 28. PBMC+LPS (5 ug/ml)+YDE-043 10 uM • 29. PBMC+LPS (5 ug/ml)+YDE-043 1 uM • 30. PBMC+LPS (5 ug/ml)+YDE-043 0.1 uM • 31. PBMC+LPS (5 ug/ml)+YDE-043 0.01 uM • 32. PBMC+LPS (5 ug/ml)+YDE-043 0.001 uM
(§3) Multiplex assay was used to measure 30 cytokines and chemokines. The 1:2, 1:10 and 1:200 diluted cell supernatant and serial dilution of the standard were dispensed into a 96 well plate at 50 ul/well. Then, the pre-mixed cocktail of antibody-coated magnetic beads was dispensed at 50 ul/well and incubated at room temperature for 2 h in a horizontal orbital microplate shaker at 800±500 rpm. The beads were washed using a magnetic device to prevent loss. The biotin-antibody was dispensed in 50 ul of each well and incubated at room temperature for 1 h in a shaker at 800±500 rpm. After washing, streptavidin-PE was added at 50 ul/well and incubated at room temperature for 30 min in a shaker under the same conditions. Finally, after washing, wash buffer (100 ul/well) was added to the plate and incubated in a shaker for 2 min. The Luminex™ 200 setting were set according to the manufacturer's protocol. The data was calculated with a standard five-parameter logistic nonlinear regression analysis of the data (xPonent software 4.2, USA). The levels of cytokine/chemokine are normalized to the live cell counts (1×10^5 cells/mL) and presented as concentrations per mL (pg/mL or ng/mL).

[2] = tested on: CCL3/MIP-1 alpha; test: Example 9 Luminex, LPS hPBMCs: CCL3/MIP-1 alpha; assay type: cell-based, human
Description: as §1, §2, §3

[3] = individual replicates (1st, 2nd)
[4] = PBMC + LPS(5 ug/ml) + test article 0.001 uM, Mean
[5] = PBMC + LPS(5 ug/ml) + test article 0.001 uM, individual replicates
[6] = PBMC + LPS(5 ug/ml) + test article 0.01 uM, Mean
[7] = PBMC + LPS(5 ug/ml) + test article 0.01 uM, individual replicates
[8] = PBMC + LPS(5 ug/ml) + test article 0.1 uM, Mean
[9] = PBMC + LPS(5 ug/ml) + test article 0.1 uM, individual replicates
[10] = PBMC + LPS(5 ug/ml) + test article 1 uM, Mean
[11] = PBMC + LPS(5 ug/ml) + test article 1 uM, individual replicates
[12] = PBMC + LPS(5 ug/ml) + test article 10 uM, Mean
[13] = PBMC + LPS(5 ug/ml) + test article 10 uM, individual replicates
[14] = PBMC + LPS(5 ug/ml) + test article 100 uM, Mean
[15] = PBMC + LPS(5 ug/ml) + test article 100 uM, individual replicates
[16] = PBMC + test article 1 uM, no LPS, Mean
[17] = PBMC + test article 1 uM, no LPS, individual replicates
[18] = PBMC + test article 10 uM, no LPS, Mean
[19] = PBMC + test article 10 uM, no LPS, individual replicates
[20] = PBMC + test article 100 uM, no LPS, Mean
[21] = PBMC + test article 100 uM, no LPS, individual replicates

SMILES: CC(C)C[C@H](NC(=O)CNC(=O)[C@H](CC(=O)O)NC(=O)[C@H](CCC(N)=O)NC(=O)CNC(=O)[C@@H]1C[C@@H](O)CN1)C(=O)N[C@@H](C)C(=O)NCC(=O)N1CCC[C@H]1C(=O)N[C@@H](CCCCN)C(=O)O [YY-101] (H-[Hyp]GQDGLAGPK-OH; N-terminus and C-terminus assumed)
- TNF-alpha Concentration ([1]; Mean): 72.7 pg/mL
- TNF-alpha conc/live cell ([1]; Mean): 11.0 pg/10^5
- TNF-alpha Concentration [1, 3]: 95.0 pg/mL and 50.5 pg/mL
- TNF-alpha conc/live cell [1, 3]: 14.8 pg/10^5 and 7.2 pg/10^5
- Concentration [2, 4]: 26885.9 pg/mL
- conc/live cell [2, 4]: 4200.1 pg/10^5
- Concentration [2, 5]: 27986.1 pg/mL and 27195.8 pg/mL and 25475.7 pg/mL
- conc/live cell [2, 5]: 4909.8 pg/10^5 and 3830.4 pg/10^5 and 3860.0 pg/10^5
- Concentration [2, 6]: 28932.4 pg/mL
- conc/live cell [2, 6]: 4694.7 pg/10^5
- Concentration [2, 7]: 29329.0 pg/mL and 29395.7 pg/mL and 28072.3 pg/mL
- conc/live cell [2, 7]: 4582.7 pg/10^5 and 4899.3 pg/10^5 and 4602.0 pg/10^5
- Concentration [2, 8]: 28457.4 pg/mL
- conc/live cell [2, 8]: 4886.3 pg/10^5
- Concentration [2, 9]: 28362.4 pg/mL and 28665.1 pg/mL and 28344.5 pg/mL
- conc/live cell [2, 9]: 4574.6 pg/10^5 and 5512.5 pg/10^5 and 4571.7 pg/10^5
- Concentration [2, 10]: 28059.0 pg/mL
- conc/live cell [2, 10]: 4314.1 pg/10^5
- Concentration [2, 11]: 28714.8 pg/mL and 27440.0 pg/mL and 28022.0 pg/mL
- conc/live cell [2, 11]: 4557.9 pg/10^5 and 3864.8 pg/10^5 and 4519.7 pg/10^5
- Concentration [2, 12]: 29972.3 pg/mL
- conc/live cell [2, 12]: 4549.0 pg/10^5
- Concentration [2, 13]: 30117.5 pg/mL and 30769.7 pg/mL and 29029.8 pg/mL
- conc/live cell [2, 13]: 5019.6 pg/10^5 and 4807.8 pg/10^5 and 3819.7 pg/10^5
- Concentration [2, 14]: 33310.8 pg/mL
- conc/live cell [2, 14]: 5765.5 pg/10^5
- Concentration [2, 15]: 35374.6 pg/mL and 31775.7 pg/mL and 32782.2 pg/mL
- conc/live cell [2, 15]: 5615.0 pg/10^5 and 5125.1 pg/10^5 and 6556.4 pg/10^5
- conc/live cell ([2]; PBMC + test article 0.01 uM, no LPS, Mean): 0.0 pg/10^5
- conc/live cell ([2]; PBMC + test article 0.1 uM, no LPS, Mean): 0.0 pg/10^5
- Concentration [2, 16]: 588.0 pg/mL
- conc/live cell [2, 16]: 53.5 pg/10^5
- Concentration [2, 17]: 588.0 pg/mL
- conc/live cell [2, 17]: 106.9 pg/10^5 and 0.0 pg/10^5
- Concentration [2, 18]: 1997.0 pg/mL
- conc/live cell [2, 18]: 156.0 pg/10^5
- Concentration [2, 19]: 1997.0 pg/mL
- conc/live cell [2, 19]: 312.0 pg/10^5 and 0.0 pg/10^5
- Concentration [2, 20]: 1030.2 pg/mL
- conc/live cell [2, 20]: 80.5 pg/10^5
- Concentration [2, 21]: 1030.2 pg/mL
- conc/live cell [2, 21]: 161.0 pg/10^5 and 0.0 pg/10^5
